Test results reported in paper PMC6152009, “The Influence of Glycosylation of Natural and Synthetic Prenylated Flavonoids on Binding to Human Serum Albumin and Inhibition of Cyclooxygenases COX-1 and COX-2” (Molecules : A Journal of Synthetic Chemistry and Natural …, 2017).

Each molecule was assayed against T1, human serum albumin (HSA) (Homo sapiens, UniProt P02768) (assay: intrinsic fluorescence quenching, double-log plot). Conditions: 300 K, phosphate buffer pH 7.4, 15 µM HSA, <2% DMSO.
T1 construct: gene ALB; essentially fatty acid free HSA
T1 sequence (P02768 25-609): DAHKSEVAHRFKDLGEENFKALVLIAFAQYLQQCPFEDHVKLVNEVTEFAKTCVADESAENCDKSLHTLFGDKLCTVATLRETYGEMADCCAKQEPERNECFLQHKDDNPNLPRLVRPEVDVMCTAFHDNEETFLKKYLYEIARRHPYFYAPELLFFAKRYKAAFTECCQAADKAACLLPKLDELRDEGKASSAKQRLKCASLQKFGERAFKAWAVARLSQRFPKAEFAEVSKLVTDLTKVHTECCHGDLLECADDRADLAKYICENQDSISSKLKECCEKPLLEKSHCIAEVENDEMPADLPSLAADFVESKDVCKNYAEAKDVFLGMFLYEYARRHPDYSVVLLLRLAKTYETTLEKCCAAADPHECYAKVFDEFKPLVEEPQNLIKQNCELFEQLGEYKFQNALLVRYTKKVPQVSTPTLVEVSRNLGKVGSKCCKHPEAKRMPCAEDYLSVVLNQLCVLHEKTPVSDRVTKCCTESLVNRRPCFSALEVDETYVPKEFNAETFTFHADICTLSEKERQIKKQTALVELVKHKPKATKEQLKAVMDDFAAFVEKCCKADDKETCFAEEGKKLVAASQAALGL
Format: binding
Excerpt: intrinsic fluorescence quenching, double-log plot on human serum albumin (HSA)

Structure (SMILES)	Kb [M⁻¹]
COc1cc(O[C@@H]2O[C@H](CO)[C@@H](OC)[C@H](O)[C@H]2O)c(CC=C(C)C)c(O)c1C(=O)CCc1ccc(O)cc1 [compound 7, α,β-Dihydroxanthohumol 4’-O-β-D-(4’’’-O-methyl)glucopyranoside]	6110
COc1cc(O)c(CC=C(C)C)c2c1C(=O)/C(=C/c1ccc(O)cc1)O2 [compound 3, (Z)-6,4’-dihydroxy-4-methoxy-7-prenylaurone]	14250
COc1cc(O[C@@H]2O[C@H](CO)[C@@H](O)[C@H](O)[C@H]2O)c(CC=C(C)C)c2c1C(=O)/C(=C/c1ccc(O)cc1)O2 [compound 8, (Z)-6,4’-Dihydroxy-4-methoxy-7-prenylaurone 6-O-β-D-glucopyranoside]	4850
COc1cc(O[C@@H]2O[C@H](CO)[C@@H](O)[C@H](O)[C@H]2O)c(CC=C(C)C)c(O)c1C(=O)CCc1ccc(O)cc1 [compound 6, α,β-Dihydroxanthohumol 4’-O-β-D-glucopyranoside]	4480
COc1cc(O[C@@H]2O[C@H](CO)[C@@H](OC)[C@H](O)[C@H]2O)c(CC=C(C)C)c2c1C(=O)/C(=C/c1ccc(O)cc1)O2 [compound 9, (Z)-6,4’-Dihydroxy-4-methoxy-7-prenylaurone 6-O-β-D-(4’’’-O-methyl)glucopyranoside]	9150
COc1cc(O)c(CC=C(C)C)c(O)c1C(=O)CCc1ccc(O)cc1 [compound 2, α,β-dihydroxanthohumol]	36350
COc1cc(O)c(CC=C(C)C)c(O)c1C(=O)/C=C/c1ccc(O)cc1 [compound 1, 3’-[3”,3”-dimethylallyl]-2’,4’,4-trihydroxy-6’-methoxychalcone]	86240
COc1cc(O[C@@H]2O[C@H](CO)[C@@H](OC)[C@H](O)[C@H]2O)c(CC=C(C)C)c(O)c1C(=O)/C=C/c1ccc(O)cc1 [compound 5, Xanthohumol 4’-O-β-D-(4’’’-O-methyl)glucopyranoside]	4550
COc1cc(O[C@@H]2O[C@H](CO)[C@@H](O)[C@H](O)[C@H]2O)c(CC=C(C)C)c(O)c1C(=O)/C=C/c1ccc(O)cc1 [compound 4, Xanthohumol 4’-O-β-D-glucopyranoside]	32710
